Reference: US20100298141A1, “SUBSTITUTED PYRIDINE N-OXIDE HERBICIDES” (E. I. DU PONT DE NEMOURS AND COMPANY, priority 2007, published 2010)

Legend:
[1] = test system: crabgrass; test: Test A pre-/postemergence greenhouse test; assay type: in vivo, Digitaria sanguinalis; details: for Crabgrass, Large plant response rating: 0 to 100 scale; for Plant response rating, Crabgrass, Large: 0 to 100 scale where 0 is no effect and 100 is complete control
Summary of the method: (§1)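 Pots of loam–sand soil sown with the test species are sprayed preemergence on the soil surface; emerged seedlings (1–2 leaves, 2–10 cm) are sprayed postemergence at the same time. The vehicle is a non-phytotoxic solvent mixture with surfactant. Injury is scored visually after ~10 d in greenhouse.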

[2] = test system: downy brome; test: Test C pre-/postemergence test; assay type: in vivo, Bromus tectorum; details: for Plant response rating, Bromegrass, Downy: 31 g ai/ha, scale 0 to 100 (0 no effect, 100 complete control); for Plant response rating (0 to 100), Bromegrass, Downy: 250 g ai/ha
Summary of the method: (§2)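 Seeds were planted and treated preemergence with test chemical in a non-phytotoxic solvent mixture containing surfactant. Postemergence applications of the same formulation went onto plants 2 to 18 cm tall (1- to 4-leaf stage). A dash marks no test result.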

[3] = test system: soybean; test: Test C pre-/postemergence test; assay type: in vivo, Glycine max; details: Preemergence; for Soybean plant response rating: 62 g ai/ha, scale 0 to 100; for Plant response rating, Soybean: 31 g ai/ha, scale 0 to 100 (0 no effect, 100 complete control)
Summary of the method: as §2

[4] = test system: barnyardgrass; test: Test A pre-/postemergence greenhouse test; assay type: in vivo, Echinochloa crus-galli; details: for Barnyardgrass plant response rating: 0 to 100 scale; for Plant response rating, Barnyardgrass: 0 to 100 scale where 0 is no effect and 100 is complete control
Summary of the method: as §1

[5] = test system: pigweed; test: Test C pre-/postemergence test; assay type: in vivo, Amaranthus retroflexus; details: Preemergence; for Pigweed plant response rating: 62 g ai/ha, scale 0 to 100; for Plant response rating, Pigweed: 31 g ai/ha, scale 0 to 100 (0 no effect, 100 complete control)
Summary of the method: as §2

[6] = test system: blackgrass; test: Test C pre-/postemergence test; assay type: in vivo, Alopecurus myosuroides; details: for Plant response rating, Blackgrass: 31 g ai/ha, scale 0 to 100 (0 no effect, 100 complete control); for Plant response rating (0 to 100), Blackgrass: 250 g ai/ha
Summary of the method: as §2

[7] = test system: velvetleaf; test: Test A pre-/postemergence greenhouse test; assay type: in vivo, Abutilon theophrasti; details: for Velvetleaf plant response rating: 0 to 100 scale; for Plant response rating, Velvetleaf: 0 to 100 scale where 0 is no effect and 100 is complete control
Summary of the method: as §1

[8] = test system: barnyardgrass; test: Test C flooded paddy test; assay type: in vivo, Echinochloa crus-galli; details: Flood
Summary of the method: (§3)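 In-water treatment: compound dosed into 3 cm flood over soil, water level unchanged throughout. Controls run alongside; visual assessment at day 13–15.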

[9] = test system: green foxtail; test: Test C pre-/postemergence test; assay type: in vivo, Setaria viridis; details: Preemergence; for Foxtail, Green plant response rating: 62 g ai/ha, scale 0 to 100; for Plant response rating, Foxtail, Green: 31 g ai/ha, scale 0 to 100 (0 no effect, 100 complete control); for Plant response rating (0 to 100), Foxtail, Green: 250 g ai/ha
Summary of the method: as §2

[10] = test system: lambsquarters; test: Test C pre-/postemergence test; assay type: in vivo, Chenopodium album; details: Preemergence; for Lambsquarters plant response rating: 62 g ai/ha, scale 0 to 100; for Plant response rating, Lambsquarters: 31 g ai/ha, scale 0 to 100 (0 no effect, 100 complete control)
Summary of the method: as §2

[11] = test system: common ragweed; test: Test C pre-/postemergence test; assay type: in vivo, Ambrosia elation; details: Preemergence; for Plant response rating, Ragweed: 31 g ai/ha, scale 0 to 100 (0 no effect, 100 complete control)
Summary of the method: as §2

[12] = test system: woolly cupgrass; test: Test C pre-/postemergence test; assay type: in vivo, Eriochloa villosa; details: Preemergence; for Cupgrass, Woolly plant response rating: 62 g ai/ha, scale 0 to 100; for Plant response rating, Cupgrass, Woolly: 31 g ai/ha, scale 0 to 100 (0 no effect, 100 complete control); for Plant response rating (0 to 100), Cupgrass, Woolly: 250 g ai/ha
Summary of the method: as §2

[13] = test system: velvetleaf; test: Test C pre-/postemergence test; assay type: in vivo, Abutilon theophrasti; details: Preemergence; for Velvetleaf plant response rating: 62 g ai/ha, scale 0 to 100; for Plant response rating, Velvetleaf: 31 g ai/ha, scale 0 to 100 (0 no effect, 100 complete control)
Summary of the method: as §2

[14] = test system: giant foxtail; test: Test A pre-/postemergence greenhouse test; assay type: in vivo, Setaria faberi; details: for Foxtail, Giant plant response rating: 0 to 100 scale; for Plant response rating, Foxtail, Giant: 0 to 100 scale where 0 is no effect and 100 is complete control
Summary of the method: as §1

[15] = test system: Surinam grass; test: Test C pre-/postemergence test; assay type: in vivo, Brachiaria decumbens; details: Preemergence; for Surinam Grass plant response rating: 62 g ai/ha, scale 0 to 100; for Plant response rating, Surinam Grass: 31 g ai/ha, scale 0 to 100 (0 no effect, 100 complete control)
Summary of the method: as §2

[16] = test system: duck salad; test: Test C flooded paddy test; assay type: in vivo, Heteranthera limosa; details: Flood
Summary of the method: as §3

[17] = test system: catchweed bedstraw; test: Test C pre-/postemergence test; assay type: in vivo, Galium aparine; details: Preemergence; for Plant response rating, Galium: 31 g ai/ha, scale 0 to 100 (0 no effect, 100 complete control); for Plant response rating (0 to 100), Galium: 250 g ai/ha
Summary of the method: as §2

[18] = Postemergence, 125 g ai/ha, 0 is no effect, 100 is complete control
[19] = Postemergence, 500 g ai/ha, 0 is no effect, 100 is complete control
[20] = Preemergence, 125 g ai/ha, 0 no effect, 100 complete control
[21] = 62 g ai/ha, Preemergence, scale 0 to 100
[22] = preemergence, 125 g ai/ha, scale 0 (no effect) to 100 (complete control)
[23] = 31 g ai/ha, scale 0 to 100 (0 no effect, 100 complete control)
[24] = 62 g ai/ha, scale 0 to 100, 0 no effect, 100 complete control, 13 to 15 days
[25] = 125 g ai/ha, scale 0 to 100, 0 no effect, 100 complete control, 13 to 15 days
[26] = 250 g ai/ha, scale 0 to 100 (0 no effect, 100 complete control)

Cn1nc(C(F)(F)F)c(C[S+]([O-])c2ccc(Cl)c[n+]2[O-])c1Cl (racemic) [Compound 17]
Crabgrass, Large plant response rating [1, 18]: 80 | Crabgrass, Large plant response rating [1, 19]: 90 | Crabgrass, Large plant response rating [1, 20]: 90 | Plant response rating, Crabgrass, Large ([1]; Preemergence, 500 g ai/ha): 100 | Bromegrass, Downy plant response rating [2, 21]: 40 | Plant response rating, Bromegrass, Downy ([2]; Preemergence): 40 | Plant response rating (0 to 100), Bromegrass, Downy ([2]; Preemergence): 85 | Bromegrass, Downy plant response rating [2, 22]: 80 | Soybean plant response rating [3]: 20 | Plant response rating, Soybean [3]: 0 | Barnyardgrass plant response rating [4, 18]: 80 | Barnyardgrass plant response rating [4, 19]: 90 | Barnyardgrass plant response rating [4, 20]: 70 | Plant response rating, Barnyardgrass ([4]; Preemergence, 500 g ai/ha): 100 | Pigweed plant response rating [5]: 100 | Plant response rating, Pigweed [5]: 100 | Blackgrass plant response rating [6, 21]: 80 | Plant response rating, Blackgrass ([6]; Preemergence): 80 | Plant response rating (0 to 100), Blackgrass ([6]; Preemergence): 100 | Blackgrass plant response rating [6, 22]: 85 | Velvetleaf plant response rating [7, 18]: 50 | Velvetleaf plant response rating [7, 19]: 80 | Velvetleaf plant response rating [7, 20]: 60 | Plant response rating, Velvetleaf ([7]; Preemergence, 500 g ai/ha): 100 | Plant response rating, Barnyardgrass [8, 23]: 20 | Plant response rating, Barnyardgrass [8, 24]: 65 | Plant response rating, Barnyardgrass [8, 25]: 85 | Plant response rating, Barnyardgrass [8, 26]: 85 | Foxtail, Green plant response rating [9]: 100 | Plant response rating, Foxtail, Green [9]: 70 | Plant response rating (0 to 100), Foxtail, Green [9]: 100 | Lambsquarters plant response rating [10]: 100 | Plant response rating, Lambsquarters [10]: 100 | Ragweed plant response rating ([11]; 62 g ai/ha, scale 0 to 100): 75 | Plant response rating, Ragweed [11]: 10 | Cupgrass, Woolly plant response rating [12]: 100 | Plant response rating, Cupgrass, Woolly [12]: 95 | Plant response rating (0 to 100), Cupgrass, Woolly [12]: 100 | Velvetleaf plant response rating [13]: 80 | Plant response rating, Velvetleaf [13]: 0 | Foxtail, Giant plant response rating [14, 18]: 80 | Foxtail, Giant plant response rating [14, 19]: 90 | Foxtail, Giant plant response rating [14, 20]: 100 | Plant response rating, Foxtail, Giant ([14]; Preemergence, 500 g ai/ha): 100 | Surinam Grass plant response rating [15]: 95 | Plant response rating, Surinam Grass [15]: 0 | Plant response rating, Ducksalad [16, 23]: 60 | Plant response rating, Ducksalad [16, 24]: 80 | Plant response rating, Ducksalad [16, 25]: 85 | Plant response rating, Ducksalad [16, 26]: 95 | Plant response rating, Galium [17]: 100 | Plant response rating (0 to 100), Galium [17]: 100

Cc1cc[n+]([O-])c([S+]([O-])Cc2c(C(F)(F)F)nn(C)c2Cl)c1 (racemic) [Compound 20]
Crabgrass, Large plant response rating [1, 18]: 40 | Crabgrass, Large plant response rating [1, 19]: 80 | Crabgrass, Large plant response rating [1, 20]: 80 | Plant response rating, Crabgrass, Large ([1]; Preemergence, 500 g ai/ha): 100 | Bromegrass, Downy plant response rating [2, 21]: 0 | Plant response rating, Bromegrass, Downy ([2]; Preemergence): 0 | Plant response rating (0 to 100), Bromegrass, Downy ([2]; Preemergence): 70 | Bromegrass, Downy plant response rating [2, 22]: 70 | Soybean plant response rating [3]: 0 | Plant response rating, Soybean [3]: 0 | Barnyardgrass plant response rating [4, 18]: 40 | Barnyardgrass plant response rating [4, 19]: 80 | Barnyardgrass plant response rating [4, 20]: 70 | Plant response rating, Barnyardgrass ([4]; Preemergence, 500 g ai/ha): 100 | Pigweed plant response rating [5]: 100 | Plant response rating, Pigweed [5]: 80 | Blackgrass plant response rating [6, 21]: 98 | Plant response rating, Blackgrass ([6]; Preemergence): 70 | Plant response rating (0 to 100), Blackgrass ([6]; Preemergence): 100 | Blackgrass plant response rating [6, 22]: 100 | Velvetleaf plant response rating [7, 18]: 30 | Velvetleaf plant response rating [7, 19]: 60 | Velvetleaf plant response rating [7, 20]: 0 | Plant response rating, Velvetleaf ([7]; Preemergence, 500 g ai/ha): 60 | Plant response rating, Barnyardgrass [8, 23]: 0 | Plant response rating, Barnyardgrass [8, 24]: 0 | Plant response rating, Barnyardgrass [8, 25]: 30 | Plant response rating, Barnyardgrass [8, 26]: 70 | Foxtail, Green plant response rating [9]: 100 | Plant response rating, Foxtail, Green [9]: 98 | Plant response rating (0 to 100), Foxtail, Green [9]: 100 | Lambsquarters plant response rating [10]: 100 | Plant response rating, Lambsquarters [10]: 90 | Plant response rating, Ragweed [11]: 0 | Cupgrass, Woolly plant response rating [12]: 70 | Plant response rating, Cupgrass, Woolly [12]: 0 | Plant response rating (0 to 100), Cupgrass, Woolly [12]: 100 | Velvetleaf plant response rating [13]: 5 | Plant response rating, Velvetleaf [13]: 0 | Foxtail, Giant plant response rating [14, 18]: 50 | Foxtail, Giant plant response rating [14, 19]: 80 | Foxtail, Giant plant response rating [14, 20]: 80 | Plant response rating, Foxtail, Giant ([14]; Preemergence, 500 g ai/ha): 100 | Surinam Grass plant response rating [15]: 70 | Plant response rating, Surinam Grass [15]: 0 | Plant response rating, Ducksalad [16, 23]: 0 | Plant response rating, Ducksalad [16, 24]: 0 | Plant response rating, Ducksalad [16, 25]: 0 | Plant response rating, Ducksalad [16, 26]: 75 | Galium plant response rating ([17]; 62 g ai/ha, scale 0 to 100): 85 | Plant response rating, Galium [17]: 80 | Plant response rating (0 to 100), Galium [17]: 100
